# Data: paper PMC6104039 (Nature Communications, 2018)
# “And” between values parts separate entries of the source, which are not always exact repeats. Identical values can stand only once.
# Assays:
# cerebellum = assay: Ceramide, SM and HexCer levels in cerebellum; type: in vivo, mice;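 on Cer 18:1/18:0 content of cerebellum: pmol per mg cerebellum tissue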;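 on Cer 18:1/24:0 content of cerebellum: pmol per mg cerebellum tissue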;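 on Cer 18:1/24:1 content of cerebellum: pmol per mg cerebellum tissue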;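 on Cer 18:2/18:0 content of cerebellum: pmol per mg cerebellum tissue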;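 on HexCer 18:1 content of cerebellum: pmol per mg cerebellum tissue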;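 on HexCer 20:1 content of cerebellum: pmol per mg cerebellum tissue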;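 on HexCer 22:1 content of cerebellum: pmol per mg cerebellum tissue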;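 on HexCer 24:0 content of cerebellum: pmol per mg cerebellum tissue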;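 on SM 32:1 content of cerebellum: pmol per mg cerebellum tissue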;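 on SM 34:2 content of cerebellum: pmol per mg cerebellum tissue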;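 on SM 36:1 content of cerebellum: pmol per mg cerebellum tissue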;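 on SM 36:2 content of cerebellum: pmol per mg cerebellum tissue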;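 on SM 40:1 content of cerebellum: pmol per mg cerebellum tissue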;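 on SM 40:2 content of cerebellum: pmol per mg cerebellum tissue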;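 on SM 42:1 content of cerebellum: pmol per mg cerebellum tissue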;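 on SM 42:2 content of cerebellum: pmol per mg cerebellum tissue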
# Source text: Supplementary Figure 7. […] Ceramide, SM, and HexCer […]
# levels in the cerebellum of vehicle- or P053-treated mice on a chow or HFD. N = 10 mice per group, except for chow vehicle group (n = 9). Mean ± SEM shown. No lipids were […]
# comparisons. C18:0 HexCer was 45% lower in the P053-treated compared to the vehicle-treated HFD group (unadjusted P value = 0.02; adjusted value P = 0.16). Raw data for these figures is provided in Supplementary Data File 1.
# [1] = test system: cultured primary myotubes; assay: Ceramide content of cultured primary myotubes; type: cell-based, murine; conditions: 1 μM
# Source text: myotubes would go a long way in making the muscle component of this work more […]
# Response: We agree with the reviewer that experiments in muscle cells often allow additional mechanistic studies to be undertaken. We investigated this possibility in immortalised and primary […]
# where C18:0 ceramide is by the far the dominant ceramide species, cultured muscle cells contain much higher levels of other ceramides, particularly C16:0 (see figure below). This divergence in ceramide profile between cultured myotubes and muscle tissue in vivo has been reported by other […]
# C18:0 ceramide content in cultured primary myotubes by ~30% (P = 0.02), whilst having no […]
# profile of skeletal muscle, CerS1 inhibition experiments with myotubes would have limited translatability to the in vivo setting.
# (1 picture or pasted object on this page, not shown here)
# [2] = HFD + P053, individual mice, raw data for Supplementary Figure 7
compound,measurement,setting,value
"C[C@@](N)(CO)CCc1ccc(OCc2ccc(Cl)c(Cl)c2)cc1 [P053, (S)-2-amino-4-(4-(3,4-dichlorobenzyloxy)phenyl)-2-methylbutan-1-ol]",Cer 18:1/18:0 content of cerebellum,cerebellum; [2],128.546 and 82.2707 and 288.623 and 116.318 and 172.743 and 86.572 and 112.409 and 311.979 and 100.825 and 239.53
same,Cer 18:1/20:0 content of cerebellum,cerebellum; [2],9.681 and 8.421 and 28.463 and 10.3564 and 18.7569 and 5.821 and 8.037 and 34.6254 and 7.548 and 24.475
same,Cer 18:1/22:0 content of cerebellum,cerebellum; [2],15.9533 and 14.996 and 57.2919 and 21.4543 and 38.4094 and 10.5899 and 9.986 and 74.6469 and 9.154 and 46.3627
same,Cer 18:1/24:0 content of cerebellum,cerebellum; [2],36.0277 and 35.1841 and 132.359 and 47.5021 and 88.9579 and 25.0017 and 22.1183 and 201.705 and 15.8687 and 131.28
same,Cer 18:1/24:1 content of cerebellum,cerebellum; [2],97.7004 and 105.297 and 370.02 and 145.116 and 239.743 and 56.9618 and 60.5027 and 471.673 and 50.6294 and 252.902
same,Cer 18:2/18:0 content of cerebellum,cerebellum; [2],5.2575 and 7.26 and 15.0915 and 8.468 and 10.666 and 4.461 and 4.156 and 21.6288 and 3.082 and 13.66
same,HexCer 16:0 content of cerebellum,cerebellum; [2],8.934 and 17.284 and 8.364 and 13.8417 and 14.6417 and 7.1271 and 5.255 and 9.259 and 5.878 and 7.654
same,HexCer 18:0 content of cerebellum,cerebellum; [2],106.702 and 382.139 and 122.466 and 271.752 and 258.221 and 146.382 and 115.813 and 146.018 and 61.4581 and 111.285
same,HexCer 18:1 content of cerebellum,cerebellum; [2],19.0333 and 51.9273 and 16.2259 and 33.0148 and 32.5326 and 25.3913 and 23.9698 and 16.5527 and 15.5439 and 16.7312
same,HexCer 20:0 content of cerebellum,cerebellum; [2],25.9921 and 81.8108 and 22.9498 and 52.8818 and 49.4884 and 37.7023 and 27.8092 and 23.4231 and 13.0014 and 19.1491
same,HexCer 20:1 content of cerebellum,cerebellum; [2],2.413 and 5.45 and 1.502 and 2.714 and 3.093 and 3.36 and 3.204 and 0.8678 and 1.872 and 1.364
same,HexCer 22:0 content of cerebellum,cerebellum; [2],505.659 and 1204.39 and 420.547 and 840.893 and 660.332 and 669.272 and 501.784 and 427.814 and 264.729 and 391.884
same,HexCer 22:1 content of cerebellum,cerebellum; [2],79.5132 and 228.816 and 78.1356 and 158.552 and 150.676 and 92.9587 and 63.0534 and 66.2392 and 42.1951 and 49.044
same,HexCer 24:0 content of cerebellum,cerebellum; [2],2652.92 and 5943.48 and 2280.7 and 4343.65 and 3299.69 and 3289.82 and 2658.72 and 2324.32 and 1408.65 and 2090.2
same,HexCer 24:1 content of cerebellum,cerebellum; [2],5027.14 and 9363.75 and 4512.26 and 7271.57 and 6673.35 and 6052.94 and 5424.24 and 3829.42 and 3500.76 and 3500.55
same,SM 32:1 content of cerebellum,cerebellum; [2],9.976 and 12.4114 and 9.047 and 10.2584 and 10.5601 and 10.6625 and 8.862 and 9.432 and 8.153 and 9.013
same,SM 34:1 content of cerebellum,cerebellum; [2],133.106 and 161.415 and 90.4808 and 115.694 and 117.777 and 135.794 and 123.089 and 72.6388 and 98.8077 and 73.1632
same,SM 34:2 content of cerebellum,cerebellum; [2],5.986 and 10.8404 and 8.948 and 9.3676 and 9.279 and 9.028 and 5.849 and 7.187 and 3.938 and 7.222
same,SM 36:1 content of cerebellum,cerebellum; [2],437.801 and 529.096 and 247.962 and 355.417 and 343.012 and 490.447 and 544.072 and 175.073 and 405.398 and 201.504
same,SM 36:2 content of cerebellum,cerebellum; [2],35.911 and 106.46 and 51.4739 and 67.513 and 67.8953 and 51.6927 and 57.9458 and 40.9288 and 32.7758 and 44.6146
same,SM 38:1 content of cerebellum,cerebellum; [2],151.251 and 204.797 and 99.8821 and 137.133 and 146.282 and 182.882 and 197.347 and 79.7159 and 145.438 and 91.2461
same,SM 38:2 content of cerebellum,cerebellum; [2],6.1474 and 11.1901 and 6.7471 and 8.325 and 8.851 and 10.1186 and 6.052 and 4.124 and 3.938 and 4.099
same,SM 40:1 content of cerebellum,cerebellum; [2],183.889 and 372.913 and 177.074 and 235.958 and 281.655 and 224.359 and 174.632 and 162.333 and 129.812 and 151.975
same,SM 40:2 content of cerebellum,cerebellum; [2],54.9137 and 116.436 and 59.8853 and 73.425 and 86.9536 and 64.465 and 34.4644 and 47.3579 and 33.4194 and 39.329
same,SM 42:1 content of cerebellum,cerebellum; [2],210.79 and 460.407 and 223.848 and 278.666 and 328.3 and 236.404 and 186.283 and 198.576 and 131.683 and 195.129
same,SM 42:2 content of cerebellum,cerebellum; [2],687.51 and 1423.11 and 718.618 and 898.145 and 1023.47 and 688.732 and 582.437 and 593.074 and 472.141 and 503.36
same,"C18:0 HexCer in cerebellum, lower than vehicle","cerebellum; HFD group, adjusted P = 0.16",45%
same,C18 ceramide or SM levels in cerebellum,cerebellum; chow or HFD,did not affect
same,reduction of C18:0 ceramide content,[1],~ 30%
